Measured values: US20090186949A1, “Method for Treating Endothelial and Epithelial Cell Disorders by Administering High Molecular Weight PEG-Like Compounds” (THE UNIVERSITY OF CHICAGO, priority 2006, published 2009)

Assays:
[1] = test system: human pulmonary artery endothelial cells (HPAEC); assay: Reversal of thrombin- or LPS-induced barrier disruption (TEER); assay type: cell-based; details: LPS
[2] = test system: PA-I lectin/adhesin expression in P. aeruginosa; assay type: cell-based, Pseudomonas aeruginosa
[3] = test system: P. aeruginosa PAO1 and 27853; assay type: cell-based, Pseudomonas aeruginosa

Row | Compound | duration of decrease in barrier resistance [1] | PA-I protein (immunoblot) [2] | biofilm production [3]
1 | lipopolysaccharide [LPS] | over 20 hours | – | –
2 | C=CCN1C[C@H](C)N([C@H](c2ccc(C(=O)N(CC)CC)cc2)c2cccc(O)c2)C[C@H]1C [BW373U86] | – | induced PA-I protein to the same degree as C4-HSL | especially increased with the δ agonist
